Measurements published in patent publication EP0847397B1, “WATER-SOLUBLE C-RING ANALOGUES OF 20 (S)-CAMPTOTHECIN” (DR. REDDY'S RESEARCH FOUNDATION, priority 1996, dated 1997).
≈ marks a conversion by molar mass, not a printed value.

Legend:
HT 29 = experiment: NCI in vitro 60 human tumor cell line assay; assay type: cell-based; details: Homo sapiens, HT-29, 48 h, read-out: Total Growth Inhibition (TGI)
Protocol: (§3) Each test compound was screened against a battery of 60 human cell lines obtained from eight organs. In a typical procedure, the cell suspensions that were diluted according to the particular cell type and the expected target cell density (5000-40,000 cells per well based on cell growth characteristics) were added into 96-well microtiter plates. Inoculates were allowed a preincubation period of 24h at 37°C. for stabilization. Dilutions at twice the intended test concentrations were added at time zero in 100-µl aliquots to microtiter plate wells. Usually test compounds were evaluated at five 10-fold dilutions. The highest well concentration used in the test is 10^-4M. The cells are then incubated in the presence of drug (the test compound) for further 48h in 5% CO2 atmosphere and 100% humidity. At the end of this time, the adherent cells are fixed to the plate by means of trichloroacetic acid, and after a number of washes, the cell layer is treated with the protein stain Sulforhodamine B. The optical density which is proportional to protein mass, is then read by automated spectrophotometric plate readers at a wavelength of 515 nm. Readings are transferred to a microcomputer and final reports are generated using especially developed software.

SF-268 = experiment: In vitro activity after 1 hour exposure (Sulforhodamine B); assay type: cell-based; details: Homo sapiens
Protocol: (§1) 6. In vitro activity after 1 hour exposure:
(§2) Grow the cells in 15 ml of Complete Medium (RPM1-1640 with 10% Fetal bovine serum and 0.2% NaHCO3) for 3-5 days to obtain a cell number of 10^6 cells/flask. The medium is removed and the attached cells are washed with Phosphate Buffered Saline (PBS). 1 ml of 0.1% Trypsin-EDTA is added and incubated for 5 min at 37°C. Tap the flasks gently and add 5 ml of complete medium. Remove cell suspension and centrifuge at 2000 rpm for 5 min. Discard the supernatant and suspend the pellet in 5 ml of complete medium. Count the cell number in a haemocytometer. Dilute the cell suspension to 10,000 cells/100 µl in complete medium. Plate out 100 µl of cell suspension in each of 96 well microtitre plate and incubate for 24 hrs at 37°C. and 5% CO2. Terminate the reference blank (plated out separately) with 25 µl of 50% cold Trichloroacetic acid (TCA). Incubate for 1 hour at 4°C. Wash the plate (five times) with deionized water. Air dry and preserve the plate at 4°C. for determination of T0 value. Prepare suitable dilution of the test compound in complete medium and add 100 µl to each well to maintain the final concentration ranging between 10^-4M and 10^-8M. Incubate for 1 hr at 37°C. and 5% CO2. Centrifuge the microtitre plate at 1000 rpm for 5 min. Remove the supernatant. Wash the cells twice with 100 µl of PBS to remove the traces of test compound. Add 200 µl of complete medium to each well and incubate for 48 hours at 37°C. and 5% CO2. Terminate the cell growth with the addition of 50 µl of 50% cold TCA. Incubate the plate for 1 hr at 4°C. Wash the plates with deionized water (five times) and air dry. Add 100 µl of Sulforhodamine B solution (0.4% in 1% acetic acid) to each well. Keep at room temperature for 15 minutes. Wash (five times) with 1% acetic acid and air dry. Add 100 µl of 10mM Trizma base (Sigma), shake gently on plate shaker for 15 minutes and read the optical density at 490 nm in Spectrophotometric plate reader. (as per the protocol followed by the U.S. National Cancer Institute.

MCF-7/ADR = experiment: as above; assay type: cell-based; details: Homo sapiens, NCI/ADR-RES, 1 hour exposure then 48 hours drug-free
Protocol: as §1, §2

ACHN = experiment: as above; assay type: cell-based; details: Homo sapiens, 1 hour exposure then 48 hours drug-free
Protocol: as §1, §2

HOP-62 = experiment: as above; assay type: cell-based; details: Homo sapiens; HOP-62, 1 hour exposure then 48 hours drug-free
Protocol: as §1, §2

UACC-62 = experiment: as above; assay type: cell-based; details: Homo sapiens; UACC-62, 1 hour exposure then 48 hours drug-free
Protocol: as §1, §2

OVCAR-8 = experiment: as above; assay type: cell-based; details: Homo sapiens; OVCAR-8, 1 hour exposure then 48 hours drug-free
Protocol: as §1, §2

DU-145 = experiment: as above; assay type: cell-based; details: Homo sapiens; DU-145, 1 hour exposure then 48 hours drug-free
Protocol: as §1, §2

HCT 15 = experiment: NCI in vitro 60 human tumor cell line assay; assay type: cell-based; details: HCT-15, 48 h, read-out: Total Growth Inhibition (TGI)
Protocol: as §3

[1] = Solubility by HPLC method; assay type: physicochemical; details: aqueous buffer, 0.1M sodium acetate buffer pH 5.0, 24 hours, room temperature
Protocol: 4. Solubility by HPLC method:
Excess of compound was soaked in 0.5 ml of 0.1M sodium acetate buffer at pH 5.0 for 24 hours at room temperature. The solution was filtered through 0.45 micron PVDF syringe filter (Gelman Sciences). The filtrate was injected into HPLC at different volumes (10 & 20 µl). Chromatograms were recorded. Responses recorded were extrapolated from the calibration curve and the solubility of the compound was calculated. (J. Med. Chem., 1995; 38: 400)

HCC 2998 = experiment: NCI in vitro 60 human tumor cell line assay; assay type: cell-based; details: Homo sapiens, HCC 2998, 48 h, read-out: Total Growth Inhibition (TGI)
Protocol: as §3

H 460 = experiment: NCI in vitro 60 human tumor cell line assay; assay type: cell-based; details: Homo sapiens, NCI-H460, 48 h, read-out: Total Growth Inhibition (TGI)
Protocol: as §3

[2] = MTD in Swiss albino mice (single dose); details: mouse, in vivo, 14 days observation
Protocol: 1. MTD in Swiss albino mice:
Each Swiss Albino mouse is injected with a single does of the test compound on a day designated as Day 1: Doses that were tested are 400, 200, 100, 50, 25, 12.5, 8.3, 6.25 and 3.13 mg/kg body weight. […] (As per the protocol followed by the U.S. National Cancer Institute)

[3] = Solubility by routine method; assay type: physicochemical; details: deionized water, 37°C
Protocol: 5. Solubility by routine method:
Compound was suspended in 5 ml of deionized water and heated to 37°C. for 10 min. Then, the solution was filtered and the filtrate was evaporated to drying using methanol and the solid residue was weighed.

Pharmacokinetics at MTD = assay type: in vivo, Swiss albino mice; details: mouse, ip, intraperitoneal, plasma; for AUC(0-t): DMSO:water (50:50), read-out: AUC0-1
Protocol: 3. Pharmacokinetics at MTD:
All studies were carried out in Swiss albino mice in the weight range 35-40 g. The animals were fasted overnight prior to dosage of the drug and were fed 3 hours after dosing. The animals were dosed intraperitonially as a solution in DMSO:water (50:50; v/v). Blood samples were drawn from orbital sinus at 1, 2, 4, 6 and 8 hours after administration of the dose into heparinized tubes, centrifuged at 13000 RPM for 10 min. Plasma samples were separated and analyzed by HPLC. To 50 µl of the sample, 100 µl of chilled acidified methanol was added and mixed to precipitate proteins. The sample was centrifuged at 13,000 RPM for 10 min. 100 µl of supernatant was made up to 200 µl with methanol:water (50:50; v/v) and 100 µl was injected on HPLC. Peak area of the drug was used for quantification. Calibration, control and recovery samples were prepared by spiking 50 µl of blank plasma with known amounts of the drug and processed in the same manner as the samples. (J. Natl. Cancer Inst., 1996; 88:817-824).

HOP 92 = experiment: NCI in vitro 60 human tumor cell line assay; assay type: cell-based; details: HOP-92, 48 h, read-out: Total Growth Inhibition (TGI)

| Compound | IC (TGI) (HT 29) [µM] | GI50 (SF-268) [µM] | GI50 (MCF-7/ADR) [µM] | GI50 (ACHN) [µM] | GI50 (HOP-62) [µM] | GI50 (UACC-62) [µM] | GI50 (OVCAR-8) [µM] | GI50 (DU-145) [µM] | IC (TGI) (HCT 15) [µM] | solubility at 24 h [1] [µg/mL] | IC (TGI) (HCC 2998) [µM] | IC (TGI) (H 460) [µM] | MTD at 336 h ([2]; intravenous) [mg/kg] | MTD at 336 h ([2]; ip, intraperitoneal) [mg/kg] | solubility at 10 min [3] [µg/mL] | AUC(0-t) (Pharmacokinetics at MTD) [µM·h] | Cmax (Pharmacokinetics at MTD) [µM] | Tmax (Pharmacokinetics at MTD) [h] | half-life (Pharmacokinetics at MTD) [h] | k el (Pharmacokinetics at MTD) [s⁻¹] | further results |
| --- | --- | --- | --- | --- | --- | --- | --- | --- | --- | --- | --- | --- | --- | --- | --- | --- | --- | --- | --- | --- | --- |
| CC[C@@]1(O)C(=O)OCc2c1cc1n(c2=O)C(OCCO)c2cc3ccccc3nc2-1 (some centres unmarked) [Example 26, 5-(2'-Hydroxyethoxy)camptothecin] | 46 | > 100 | > 100 | > 100 | > 100 | 0.075 | > 100 | 50 | 36.3 | 800 (≈ 1.96 mM) | 10.5 | 1 | 25 to 50 | 200 | 6000 (≈ 14.7 mM) | 562 ± 41.8 | 264 ± 21.9 | 1 | 1.84 ± 0.3 | 0.000106 | – |
| CC[C@@]1(O)C(=O)OCc2c1cc1n(c2=O)C(OCC(F)(F)F)c2cc3cc(O)ccc3nc2-1 (some centres unmarked) [Example 27, 10-Hydroxy-5-trifluoroethoxycamptothecin] | 2.41 | > 100 | 60 | 8 | 2 | 9 | 75 | 0.35 | 20 | 500 (≈ 1.08 mM) | 7.67 | 5.09 | 200 | 400 | 2000 to 3000 (≈ 4.33 to 6.49 mM) | 23.1 ± 2.7 | 7.4 ± 0.8 | 1.33 ± 0.6 | 2.38 ± 0.2 | 8.06e-05 | IC (TGI) (HOP 92): 4.88 µM |
